# Experimental data from ChEMBL document CHEMBL4834431, “Design of Dimeric Bile Acid Derivatives as Potent and Selective Human NTCP Inhibitors” (J Med Chem, 2021).
# Active and inactive are the calls of the source. The calls are words filed in the database; no cut-off is given here.
# Key:
# Hepatitis B virus [1] = test: Antiviral activity against HBV infected in human HepG2-NTCP cells assessed as reduction in HBeAg secretion at 111 to 1000 nM incubated for 24 hrs followed by replacement with fresh medium and measured at day 5 post infection by ELISA; assay type: functional, organism-based; conditions: dose 111-1000 nM
# Hepatitis delta virus = test: Antiviral activity against HDV infected in human HepG2-NTCP cells assessed as reduction in intranuclear accumulation of HDV delta antigen at 5 uM incubated for 24 hrs followed by replacement with fresh medium and measured at day 5 post infection by DAPI staining based confocal microscopic analysis (reference value: 12.1 %); assay type: functional; set-up: scale not given: the % may be the effect or the level left
# Hepatitis B virus [2] = test: Antiviral activity against HBV infected in human HepG2-NTCP cells assessed as reduction in HBeAg secretion incubated for 24 hrs followed replacement with fresh medium and measured at day 5 post infection by ELISA; assay type: functional, organism-based
# Hepatitis B virus [3] = test: Antiviral activity against HBV infected in human HepG2-NTCP cells assessed as reduction in intracellular accumulation of HBsAg at 1 uM by immunostaining based fluorescence microscopic analysis; assay type: functional, organism-based
# [4] = target: T1, Hepatic sodium/bile acid cotransporter (Homo sapiens, UniProt Q14973); test: Inhibition of human NTCP-mediated [3H]-TCA uptake expressed in human HepG2 cells at 2 uM; assay type: cell-based; conditions: hepg2, 2 µM
# T1 sequence (Q14973 whole entry): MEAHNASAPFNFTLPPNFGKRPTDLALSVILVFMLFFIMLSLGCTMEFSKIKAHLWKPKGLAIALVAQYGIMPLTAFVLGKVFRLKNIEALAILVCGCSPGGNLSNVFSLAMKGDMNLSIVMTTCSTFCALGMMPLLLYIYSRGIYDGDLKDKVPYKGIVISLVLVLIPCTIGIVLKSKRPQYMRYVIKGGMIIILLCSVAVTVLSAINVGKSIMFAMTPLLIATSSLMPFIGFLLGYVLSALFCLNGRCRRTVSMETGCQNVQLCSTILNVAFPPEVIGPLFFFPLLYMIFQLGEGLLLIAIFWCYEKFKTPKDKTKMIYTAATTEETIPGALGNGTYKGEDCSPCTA
# Hepatitis B virus [5] = test: Antiviral activity against HBV infected in human HepG2-NTCP cells assessed as reduction in HBeAg secretion at 1 uM preincubated with compound followed by viral infection by ELISA; assay type: functional, organism-based
# HepG2 [6] = test: Effect on NTCP surface expression in human HepG2-NTCP cells assessed as reduction in NTCP surface expression level after 2 hrs by immunostaining based assay; assay type: functional, cell-based
# [7] = target: T2, Ileal sodium/bile acid cotransporter (Homo sapiens, UniProt Q12908); test: Inhibition of human ASBT-mediated [3H]-TCA uptake expressed in human HepG2 cells at 2 uM; assay type: cell-based; conditions: hepg2, 2 µM
# T2 sequence (Q12908 whole entry): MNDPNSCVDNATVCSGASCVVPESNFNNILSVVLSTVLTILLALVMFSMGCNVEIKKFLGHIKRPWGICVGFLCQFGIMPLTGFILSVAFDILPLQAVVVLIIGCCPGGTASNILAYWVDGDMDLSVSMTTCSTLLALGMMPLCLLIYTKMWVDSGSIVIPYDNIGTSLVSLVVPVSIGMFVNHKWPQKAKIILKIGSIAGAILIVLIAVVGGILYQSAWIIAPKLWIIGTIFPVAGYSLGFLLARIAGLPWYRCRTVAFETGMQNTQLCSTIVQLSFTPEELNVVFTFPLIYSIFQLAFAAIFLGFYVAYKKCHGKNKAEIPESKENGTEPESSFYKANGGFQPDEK
# Hepatitis B virus [8] = test: Antiviral activity against HBV infected in human HepG2-NTCP cells assessed as reduction in HBeAg secretion at 1 uM pre-infected with virus followed by compound addition by ELISA; assay type: functional, organism-based
# [9] = target: T1, Hepatic sodium/bile acid cotransporter; test: Inhibition of human NTCP-mediated [3H]-Estrone sulfate uptake expressed in human HepG2 cells at 2 uM; assay type: cell-based; conditions: hepg2, 2 µM
# HepG2 [10] = test: Cytotoxicity against human HepG2 cells expressing NTCP assessed as reduction in cell viability at 10 uM after 48 hrs by alamar blue assay; assay type: cell-based; conditions: hepg2, 48 h
# [11] = target: T1, Hepatic sodium/bile acid cotransporter; test: Inhibition of human NTCP-mediated NQL-064 uptake expressed in human HepG2 cells incubated for 30 mins; assay type: cell-based; conditions: hepg2, 0.5 h
# Hepatitis B virus [12] = test: Antiviral activity against HBV infected in human HepG2-NTCP cells assessed as reduction in intracellular HBV RNA level at 1 uM by qPCR analysis; assay type: functional, organism-based
# [13] = target: T1, Hepatic sodium/bile acid cotransporter; test: Inhibition of FITC-labeled HBV Pre-S1 polypeptide binding to human NTCP expressed in HepG2 cells after 2 to 3 hrs by confocal microscopic analysis; assay type: cell-based; conditions: time 2-3 hrs
# Hepatitis B virus [14] = test: Antiviral activity against HBV infected in human HepG2-NTCP cells assessed as reduction in intracellular accumulation of HBcAg at 1 uM by immunostaining based fluorescence microscopic analysis; assay type: functional, organism-based
# Hepatitis B virus [15] = test: Antiviral activity against HBV infected in human HepG2-NTCP cells assessed as reduction in HBeAg secretion preincubated for 2 hrs followed by viral infection by ELISA; assay type: functional, organism-based
# Hepatocyte = test: Cytotoxicity against primary tupaia hepatocytes expressing NTCP assessed as reduction in cell viability at 100 uM after 48 hrs by Cell-Titer Glo assay; assay type: cell-based; conditions: scandentia
# Hepatitis B virus [16] = test: Antiviral activity against HBV infected in human HepG2-NTCP cells assessed as reduction in HBeAg secretion at 1 uM compound added along with viral infection by ELISA; assay type: functional, organism-based
# [17] = target: T1, Hepatic sodium/bile acid cotransporter; test: Inhibition of human NTCP-mediated NQL-065 uptake expressed in human HepG2 cells incubated for 30 mins; assay type: cell-based; conditions: hepg2, 0.5 h
# [18] = target: T3, Solute carrier organic anion transporter family member 1B1 (Homo sapiens, UniProt Q9Y6L6); test: Inhibition of human OATP1B1-mediated [3H]-Estrone sulfate uptake expressed in human HepG2 cells at 2 uM; assay type: cell-based; conditions: hepg2, 2 µM
# T3 sequence (Q9Y6L6 whole entry): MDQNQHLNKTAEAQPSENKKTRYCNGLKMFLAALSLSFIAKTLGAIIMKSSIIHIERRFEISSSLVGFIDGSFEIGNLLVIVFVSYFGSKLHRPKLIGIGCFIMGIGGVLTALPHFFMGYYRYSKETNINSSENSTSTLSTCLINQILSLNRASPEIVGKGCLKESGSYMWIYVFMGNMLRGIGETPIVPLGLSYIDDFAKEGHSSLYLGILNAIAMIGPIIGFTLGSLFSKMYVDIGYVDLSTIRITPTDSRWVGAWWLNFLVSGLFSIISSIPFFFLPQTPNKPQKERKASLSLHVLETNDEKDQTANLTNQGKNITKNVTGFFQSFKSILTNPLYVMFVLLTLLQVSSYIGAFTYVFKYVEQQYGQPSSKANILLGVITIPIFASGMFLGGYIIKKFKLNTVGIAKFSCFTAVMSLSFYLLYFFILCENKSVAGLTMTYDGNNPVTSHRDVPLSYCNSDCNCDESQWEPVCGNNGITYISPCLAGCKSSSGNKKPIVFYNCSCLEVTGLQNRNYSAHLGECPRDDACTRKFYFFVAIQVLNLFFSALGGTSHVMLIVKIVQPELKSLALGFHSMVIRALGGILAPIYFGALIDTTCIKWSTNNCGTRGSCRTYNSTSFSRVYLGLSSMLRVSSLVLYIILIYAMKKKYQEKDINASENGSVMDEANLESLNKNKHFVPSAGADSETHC
# [19] = Stability in mouse liver microsomes assessed as half life at 1 uM preincubated for 5 mins followed by NADPH addition and measured upto 60 mins by LC-MS analysis; assay type: ADME, Microsome; conditions: time 65 min
# [20] = Stability in mouse liver microsomes assessed as intrinsic clearance at 1 uM preincubated for 5 mins followed by NADPH addition and measured upto 60 mins by LC-MS analysis; assay type: ADME, Microsome; conditions: time 65 min, read-out: CLH
# [21] = target: T1, Hepatic sodium/bile acid cotransporter; test: Inhibition of human NTCP-mediated [3H]-TCA uptake expressed in human HepG2 cells pretreated for 2 hrs followed by [3H]-TCA addition in absence of FBS; assay type: cell-based
smiles,measurement,setting,value
C[C@H](CCC(=O)NCCS(=O)(=O)O)[C@H]1CC[C@H]2[C@@H]3[C@@H](O)C[C@@H]4C[C@H](OC(=O)CCCC(=O)O[C@@H]5CC[C@@]6(C)[C@@H](C5)C[C@H](O)[C@@H]5[C@@H]6CC[C@]6(C)[C@@H]([C@H](C)CCC(=O)NCCS(=O)(=O)O)CC[C@@H]56)CC[C@]4(C)[C@H]3CC[C@]12C,Activity,Hepatitis B virus [1],Active
same,Activity,Hepatitis delta virus,2.8%
same,IC50,Hepatitis B virus [2],65 nM
same,Activity,Hepatitis B virus [3],Active
same,inhibition (INH),[4],Active
same,Activity,Hepatitis B virus [5],Active
same,Activity,HepG2 [6],inactive
same,inhibition (INH),[7],Not Active
same,Activity,Hepatitis B virus [8],inactive
same,inhibition (INH),[9],Active
same,Activity,HepG2 [10],Non-Toxic
same,inhibition (INH),[11],Active
same,Activity,Hepatitis B virus [12],Active
same,inhibition (INH),[13],Active
same,Activity,Hepatitis B virus [14],Active
same,Activity,Hepatitis B virus [15],inactive
same,Activity,Hepatocyte,Non-Toxic
same,Activity,Hepatitis B virus [16],Active
same,inhibition (INH),[17],Active
same,inhibition (INH),[18],Not Active
C[C@H](CCC(=O)N[C@@H]1CC[C@@]2(C)[C@@H](C1)C[C@H](O)[C@@H]1[C@@H]2CC[C@]2(C)[C@@H]([C@H](C)CCC(=O)NCCS(=O)(=O)O)CC[C@@H]12)[C@H]1CC[C@H]2[C@@H]3[C@@H](O)C[C@@H]4C[C@H](O)CC[C@]4(C)[C@H]3CC[C@]12C,half-life at 1 µM,[19],0.7 min
same,IC50,Hepatitis B virus [2],5 nM
same,microsomal CLint at 1 µM,[20],994 µL/min/mg
same,IC50,[21],0.3 nM
C[C@@H]1CCC(=O)NCCNC(=O)CC[C@@H](C)[C@H]2CC[C@H]3[C@@H]4[C@@H](O)C[C@@H]5C[C@@H](CC[C@]5(C)[C@H]4CC[C@]23C)n2cc(nn2)CO[C@@H]2CC[C@@]3(C)[C@@H](C2)C[C@H](O)[C@@H]2[C@@H]3CC[C@]3(C)[C@@H]1CC[C@@H]23,IC50,Hepatitis B virus [2],81 nM
same,IC50,[21],37.5 nM
